pIC50: −log10 of the molar value.
Assays:
[1] = target: human hematopoietic synthase (Homo sapiens, UniProt O60760); assay: Hematopoietic synthase inhibitory activity (Experiment 1); type: biochemical; conditions: [14C] prostaglandin H2 10 μM, preincubated at 25° C. for 5 minutes, 1 minute reaction; read-out: Concentration of Pharmaceutical Compound Required to Inhibit 50% of Hematopoietic Synthase
[2] = test system: PGD2 amount in bronchoalveolar lavage fluid; assay: Inhibitory activity for prostaglandin D2 production into bronchoalveolar lavage fluid in rats (Experiment 2); type: in vivo, Brawn Norway rats; conditions: 10 mg/kg orally two hours before antigen inhalation; lavage fluid one hour after ovalbumin inhalation; sensitized rats
Experimental: A physiological saline solution containing 1 mg of ovalbumin and 4 mg of alum was subcutaneously injected into the backs of 7-week-old male Brawn Norway rats in an amount of 1 mL/body, and 0.06 mg of killed pertussis bacteria were intraperitoneally injected into each rat to perform active sensitization. Fourteen days after sensitization, the rats inhaled 2% ovalbumin for 10 minutes. One hour after inhalation, bronchoalveolar lavage fluid was collected. The amount of PGD2 in the bronchoalveolar lavage fluid was determined using an EIA kit. Two hours before antigen inhalation, a test compound (10 mg/kg) was orally administered.

[3] = test system: antigen-induced nasal congestion; assay: Ameliorating activity for antigen-induced nasal congestion in guinea pig (Experiment 3); type: in vivo, Std:Hartley guinea pigs; conditions: for AUC3-7 hr (nRaw increase %): 3 to 7 hours after induction
Experimental: A physiological saline solution containing 1 mg/mL of ovalbumin was subcutaneously injected into the backs of 5-week-old male Std:Hartley guinea pigs in an amount of 1 mL/body for active sensitization (primary sensitization). One week and two weeks after primary sensitization, 20 μL each of a physiological saline solution containing 10 mg/mL of ovalbumin was instilled into the nasal cavities using a micropipette (sensitization by nasal administration). Three weeks after primary sensitization, 10 μL each of a physiological saline solution containing 20 mg/mL of ovalbumin was instilled into the nasal cavities using a micropipette to induce a rhinitis reaction.
Before, and 10 minutes and 2, 3, 4, 5, 6 and 7 hours after nasal instillation of ovalbumin, the nasal airway resistance per 100 breaths was determined using a comprehensive respiratory function analysis system (“Pulmos-I”, a product of M.I.P.S. Co., Ltd.), and the average at each measurement time was calculated and expressed as nRaw. The increase % of nRaw was calculated according to the following formula. Increase(%)of nRaw at each measurement time=(nRaw at each measurement time−nRaw before induction)÷nRaw before induction×100
Nasal congestion was evaluated by measuring the area under the curve of nRaw increase % during the period of 3 to 7 hours after induction (AUC3-7 hr). “I3-7 hr” refers to the increase of nRaw during the period of 3 to 7 hours after induction. AUC3-7hr=½(I3hr+2×I4hr+2×I5hr+2×I6hr+I7hr)
To confirm the effects on nasal congestion by inhibition of PGD2 production, Compound 15 was selected as a representative compound and orally administered once a day for 15 consecutive days from the day of nasal sensitization performed 1 week after primary sensitization to the day of induction performed 3 weeks after primary sensitization. On the nasal sensitization days (1 week and 2 weeks after primary sensitization) and the induction day, compound 15 was orally administered 1 hour before intranasal instillation of ovalbumin.

Chain of human hematopoietic synthase (O60760 whole entry): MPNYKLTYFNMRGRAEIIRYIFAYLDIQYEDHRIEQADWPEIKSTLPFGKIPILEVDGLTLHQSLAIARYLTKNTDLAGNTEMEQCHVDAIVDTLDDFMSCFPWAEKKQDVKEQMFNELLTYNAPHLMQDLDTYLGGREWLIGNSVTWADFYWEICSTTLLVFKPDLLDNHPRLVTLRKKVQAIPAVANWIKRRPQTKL

pIC50 [1] | SMILES | Inhibition (%) of the PGD2 Amount in Bronchoalveolar Lavage Fluid [2] | Inhibition (%) of nasal congestion (AUC3-7 hr) ([3]; 30 mg/kg orally) | AUC3-7 hr (nRaw increase %) ([3]; 30 mg/kg orally) | also measured
6.75 | Cc1oc(C(=O)N2CCCC2)c(C)c1-c1nc2cc(C(=O)c3ccccc3)ccc2[nH]1 [Compound 3, (4-(5-Benzoylbenzimidazol-2-yl)-3,5-dimethyl-2-furanylcarbonyl)pyrrolidine] | 36% |  |  | 
6.27 | Cc1[nH]c(C#N)c(C)c1-c1nc2cc(C(=O)c3ccccc3)ccc2[nH]1 [Compound 13, 2-(2-Cyano-3,5-dimethyl-pyrrol-4-yl)-5-benzoylbenzimidazole] | 48% |  |  | melting point: 159 to 163 °C
6.59 | CON(C)C(=O)c1[nH]c(C)c(-c2nc3cc(C(=O)c4ccccc4)ccc3[nH]2)c1C [Compound 15, (N-Methoxy-N-methyl)-4-(5-benzoylbenzimidazol-2-yl)-3,5-dimethylpyrrole-2-carboxamide] | >72% | 92.8% | 65.7 ± 28.9 % · hr | melting point: 127 to 132 °C; Inhibition (%) of nasal congestion (AUC3-7 hr) ([3]; 3 mg/kg orally): 60.8%; AUC3-7 hr (nRaw increase %) ([3]; 3 mg/kg orally): 273.9 ± 69.1 % · hr; Inhibition (%) of nasal congestion (AUC3-7 hr) ([3]; 10 mg/kg orally): 76.5%; AUC3-7 hr (nRaw increase %) ([3]; 10 mg/kg orally): 153.5 ± 27.1 % · hr
6.23 | Cc1[nH]c(C(=O)N2CCOCC2)c(C)c1-c1nc2cc(C(=O)c3ccccc3)ccc2[nH]1 [Compound 40, ((4-(5-benzoylbenzimidazol-2-yl)-3,5-dimethylpyrrol-2-yl)-carbonyl)morpholine] | 65% |  |  | 
7.20 | Cc1[nH]c(C(=O)N2CCC=N2)c(C)c1-c1nc2cc(C(=O)c3ccccc3)ccc2[nH]1 [Compound 42, ((4-(5-Benzoylbenzimidazol-2-yl)-3,5-dimethylpyrrol-2-yl)-carbonyl)pyrazoline] | 88% |  |  | 
 | O=C(Nc1cccc2c(=O)cc(-c3nnn[nH]3)oc12)c1ccc(OCCCCc2ccccc2)cc1 [Pranlukast, reference compound] |  | 81.5% | 126.3 ± 41.7^$$ % · hr | 
 | O=C(O)CCn1c2c(c3ccccc31)C[C@H](NS(=O)(=O)c1ccc(F)cc1)CC2 [Ramatroban, reference compound] |  | 70.9% | 183.4 ± 29.3^$$ % · hr | 

Source: patent US7951956B2, “Benzoimidazole compound capable of inhibiting prostaglandin D synthetase” (Taiho Pharmaceuticals Co., Ltd., priority 2005, dated 2011)
